# From PubChem BioAssay AID602167 (The Scripps Research Institute Molecular Screening Center, 2012)
# Active and inactive are the calls of the source. The rule behind the calls is not given here.
# Biological target: transactivating tegument protein VP16 (Human herpesvirus 1), as a GAL4-VP16 activation-domain luciferase reporter
# Experiment: VP16 transactivation inhibitor potency, dose response, counter-screen for SRC3 inhibitor project, cell-based, luminescence, high throughput, SRC3 series (AID 602167)
# Details: VP16 transactivation luciferase reporter cells
row,SMILES,IC50
1,COc1cc(/C=N/NC(N)=S)cc(Br)c1OCc1ccccc1F,> 12 µM (inactive)
2,Nc1nc(CCl)nc(Nc2cccc3ccccc23)n1,inactive
3,COc1ccccc1N(C(=O)CCl)c1cn(C(C)=O)c2ccccc12,8.58 µM
4,COc1cc2c(cc1OC)C(C)N(C(=O)c1cccc([N+](=O)[O-])c1)CC2 (configuration not stated),8.56 µM
5,CN(Cc1cnc2nc(N)nc(N)c2n1)c1ccc(C(=O)NC(CCC(=O)O)C(=O)O)cc1 (configuration not stated),> 35.9 µM (inactive)
6,CCCC(=O)NC(c1ccc(Cl)cc1)c1ccc2cccnc2c1O (configuration not stated),4.4 µM
7,CC(=O)NC(c1cc(Cl)c2cccnc2c1O)C(C)C (configuration not stated),inactive
8,O=C(CC(Nc1ccc(Cl)cc1Cl)C(=O)O)c1ccccc1 (configuration not stated),4.77 µM
9,CC(=O)c1ccc(Nc2c3c(nc4ccccc24)CCCC3)cc1,inactive
10,COc1ccc(-c2cn[nH]c2-c2ccc(OC)cc2O)cc1,6.04 µM
11,CCc1ccc(-c2nc(CSCC(=O)NCc3ccco3)c(C)o2)cc1,inactive
12,COc1cc2c(ccc3cc(OC)c(OC)c(O)c32)cc1O,inactive
13,Cc1cc(C(=O)CN2C(=O)c3ccccc3S2(=O)=O)c(C)n1C(C)C,inactive
14,CCCS(=O)(=O)Nc1ccc(Nc2c3ccccc3nc3ccccc23)c(OC)c1,> 35.9 µM (inactive)
15,O=S(=O)(/C(=C\c1ccc(C(F)(F)F)cc1)c1nc2ccccc2[nH]1)c1ccccc1,3.93 µM
16,COC(=O)c1cc(S(=O)(=O)NCCc2ccc(Cl)cc2)c[nH]1,inactive
17,O=c1[nH]cnc2c1nnn2C1OC(CO)C(O)C1O (configuration not stated),inactive
18,Nc1ncnc(NCc2ccccc2)c1[N+](=O)[O-],inactive
19,Cc1ccc(OCC(=O)c2cc(C)n(-c3ccccc3)c2C)c([N+](=O)[O-])n1,inactive
20,CCn1nc(/C=C/c2ccccc2)nc2c(=O)n(C)c(=O)nc1-2,5.14 µM
21,COc1cc(/C=C2\CC(C(C)(C)C)C/C(=C\c3cc(OC)c(OC)c(OC)c3)C2=O)cc(OC)c1OC (configuration not stated),4.47 µM
22,COC(=O)c1c(C)n(-c2ccc(OC)cc2)c2ccc(O)cc12,8.88 µM

row,SMILES,IC50
1,COc1ccc(/C=C2\CC/C(=C\c3ccc(OC)c(OC)c3)C2=O)cc1OC,inactive
2,S=C(Nc1ccccc1)Nc1ccc(OCc2ccc(Cl)cc2Cl)cc1,7.96 µM
3,Cc1cccc2sc(NNC(=O)c3ccc(S(=O)(=O)N4CC(C)CC(C)C4)cc3)nc12 (configuration not stated),7.55 µM
4,Cc1ccc(/C=C2/SC(=S)N(CCCC(=O)Nc3ccc(O)cc3)C2=O)cc1,inactive
5,COc1ccc(Nc2ccncc2[N+](=O)[O-])cc1,6.45 µM
6,Cc1ccc(C(=O)Nc2cnc3ccccc3c2)cc1,8.49 µM
7,O=C(NCCc1ccccc1)c1ccc2c(c1)OCCO2,5.83 µM
8,Cc1cccc(NC(=O)c2cc(Cl)ccc2[N+](=O)[O-])c1,inactive
9,CN(Cc1cnc2nc(N)nc(N)c2n1)c1ccc(C(=O)N[C@@H](CCC(=O)O)C(=O)O)cc1,> 35.9 µM (inactive)
10,O=C(N/N=C\c1ccc([N+](=O)[O-])o1)C1COc2ccccc2O1 (configuration not stated),inactive
11,Cc1c(/C(O)=C2/C(=O)C(=O)N(Cc3cccnc3)C2c2ccccn2)cnn1-c1ccccc1 (configuration not stated),> 35.9 µM (inactive)
12,O=C(OCCC12CC3CC(CC(C3)C1)C2)c1ccc(NCc2cc(O)ccc2O)cc1,5.45 µM
13,COc1ccc(COC(=O)C2=C(C)NC(=O)NC2c2ccc(F)cc2)cc1 (configuration not stated),9.08 µM
14,COc1cc(C2c3cc4c(cc3C(OC3OC5COC(c6cccs6)OC5C(O)C3O)C3COC(=O)C23)OCO4)cc(OC)c1O (configuration not stated),> 35.8 µM (inactive)
15,NC(=O)c1cc(Sc2ccccc2)nc2ccccc12,inactive
16,CCOC(=O)C(C(C)=O)c1c(Br)c(O)c(O)c2c(C(=O)c3ccc(C)cc3)coc12 (configuration not stated),4.28 µM
17,CCOC(=O)CC(=O)CSc1nccc(-c2cccnc2)n1,inactive
18,NNC(=O)c1cc2ccccc2cc1O,inactive
19,O=C(CCl)N1N=C(c2ccco2)CC1c1ccco1 (configuration not stated),> 12 µM (inactive)
20,O=C(CCl)N(c1ccccc1)C1CCS(=O)(=O)C1 (configuration not stated),inactive
21,COC(=O)c1cccc2c1-c1ccccc1/C2=N/O,5.73 µM
22,COC(CN(C(=O)CCl)C(C(=O)NC1CCCCC1)c1ccccc1C)OC (configuration not stated),7.26 µM

row,SMILES,IC50
1,O=C(CCl)N(c1ccccc1)C1CCCCC1,inactive
2,COc1ccc2[nH]c(=O)c(CN(CCN3CCCC3)C(=O)Nc3ccccc3Cl)cc2c1,inactive
3,COc1cccc(/C=N/Nc2ccc([N+](=O)[O-])cn2)c1O,4.48 µM
4,CCCC(=O)NC(c1ccc2c(c1)OCO2)c1cc(Cl)c2cccnc2c1O (configuration not stated),7.92 µM
5,CCN(c1cccc(C)c1)c1ncnc2nc[nH]c12,inactive
6,CO[C@@]12[C@@H]3N[C@@H]3CN1C1=C(C(=O)C(N)=C(C)C1=O)[C@@H]2COC(N)=O,> 35.8 µM (inactive)
7,O=C(c1ccncc1)N(Cc1cc2ccccc2[nH]c1=O)C1CCCCC1,7.96 µM
8,O=[N+]([O-])c1cccc2c1ccc1ncccc12,inactive
9,COc1cc(C(=O)N/N=C(\c2ccccc2)c2ccccn2)cc(OC)c1OC,7.23 µM
10,O=C(Nc1nc2cc3c(cc2s1)OCCO3)C1=COCCO1,7.78 µM
11,COc1ccc(/C=C2\CN(Cc3ccccc3)C/C(=C\c3ccc(OC)c(O)c3)C2=O)cc1O,inactive
12,Cc1cc2nccc(-c3ccncc3)n2n1,inactive
13,O=C(Nc1ccccc1Oc1ccccc1)c1cc([N+](=O)[O-])ccc1Cl,inactive
14,Cc1ccc2nc(C(F)(F)F)c(C#N)c(N)c2c1,inactive
15,CCCc1c(C)nc2ccccc2c1SCCC#N,inactive
16,CC(=O)Nc1ccc(SCC(=O)c2cc(C)n(-c3ccccc3)c2C)cc1,> 35.9 µM (inactive)
17,COc1ccc(OC)c(Cc2cnc3nc(N)nc(N)c3c2C)c1,> 35.9 µM (inactive)
18,CCc1nc(N)nc(N)c1-c1ccc(Cl)c([N+](=O)[O-])c1,> 35.8 µM (inactive)
19,Cc1sc2ncnc(N3CCC(C(=O)Nc4ccccc4C(C)(C)C)CC3)c2c1C,8.88 µM
20,c1ccc(-c2noc(-c3ccc4ccccc4c3)n2)nc1,6.07 µM
21,COc1ccc(-n2cnc3c(sc4nccc(N(C)C)c43)c2=O)cc1,inactive
22,COc1cc(/C=N/NC(=Nc2ccc(C)cc2)c2nc3ccccc3s2)ccc1O,inactive

row,SMILES,IC50
1,CCCCC(=O)NC(c1ccc(Cl)cc1Cl)c1ccc2cccnc2c1O (configuration not stated),4.78 µM
2,Nc1nc2c(nnn2C2CC(O)C(CO)O2)c(=O)[nH]1 (configuration not stated),inactive
3,Nc1nc(=S)c2ncn([C@@H]3O[C@H](CO)[C@@H](O)[C@H]3O)c2[nH]1,3.37 µM
4,Cc1ccc2occ(/C=N/NC(=O)c3ccccc3Br)c(=O)c2c1,9.36 µM
5,COc1cccc(CNc2ncnc3ccc(-c4c(C)noc4C)cc23)c1,> 35.9 µM (inactive)
6,Clc1ccc(-c2csc3ncnc(NCCN4CCOCC4)c23)cc1,8.01 µM
7,Cc1ncc(CO)c(/C=N/NC(=O)c2cc3c(s2)CCCC3)c1O,6.04 µM
8,Nc1ccc(Oc2ccccc2-c2ccccc2)cc1,inactive
9,O=c1[nH]c2ccccc2n1C1CCN(C(c2ccccc2)c2nnnn2-c2ccc3c(c2)OCCO3)CC1 (configuration not stated),inactive
10,CS(=O)c1nc(-c2ccc(Br)cc2)cc(-c2ccccc2)c1C#N (configuration not stated),inactive
11,C(=NNc1ccc2ccccc2n1)c1ccccn1,inactive
12,CC(C)(C)n1ncc2c(=O)n(CC(=O)OCc3ccccc3)cnc21,inactive
13,COc1ccc(C)cc1NS(=O)(=O)c1ccc(NC(=O)CN(c2cc([N+](=O)[O-])ccc2C)S(C)(=O)=O)cc1,inactive
14,CC(C)(C)c1ccc(-c2noc(CCC(=O)Nc3cccnc3)n2)cc1,inactive
15,CC(=O)/C(N=Nc1ccc2c(c1)OCCO2)=C(\C)O,> 12 µM (inactive)
16,Cc1c(Cl)cccc1NC(=O)Nc1ccccc1C(N)=O,> 35.9 µM (inactive)
17,Cc1ccc(-n2c(Cl)c(Cl)nc(Cl)c2=O)cc1,4.07 µM
18,CCOC(=O)c1cc2sccc2n1CC(=O)N1CCc2ccccc21,> 35.9 µM (inactive)
19,O=C(NCc1ccccc1)c1c(Cl)nc(Cl)c(Cl)c1Cl,inactive
20,CC1(C)N=C(N)N=C(N)N1CCCCc1ccccc1,5.25 µM
21,Cc1c(CC(=O)NCCCC(=O)O)c(=O)oc2cc3c(cc12)CCC(C)(C)O3,inactive
22,CCC(=O)N1CCN(c2ccnc3cc(Cl)ccc23)CC1,inactive

row,SMILES,IC50
1,O=[N+]([O-])c1ccc(N(CCO)CCO)c2c1no[n+]2[O-],5.59 µM
2,O=C(CNc1cccc([N+](=O)[O-])c1)N/N=C/c1ccc([N+](=O)[O-])o1,inactive
3,C=CCOn1c(C)c(C(C)=O)c2c3nonc3ccc21,7.3 µM
4,O=C(Nc1cccnc1)c1ccc(C(=O)Nc2cccnc2)cc1,> 35.9 µM (inactive)
5,CC(=O)N1CCN(c2ncnc3ccccc23)CC1,inactive
6,COc1cccc(F)c1C(C[N+](=O)[O-])c1c(N)n(C)c(=O)n(C)c1=O (configuration not stated),5.01 µM
7,Cc1nc(N2CCC(C(N)=O)CC2)c2c(-c3cccs3)csc2n1,inactive
8,CC[C@@]1(O)C(=O)OCc2c1cc1n(c2=O)Cc2cc3c(NC(=O)CN)cccc3nc2-1,> 35.9 µM (inactive)
9,O=C(COC(=O)c1ccc[nH]c1=O)Nc1ccc(N2CCCCC2)cc1,> 35.9 µM (inactive)
10,O=c1[nH]c2ccccc2n1C1CCN(C(c2cccc3ccccc23)c2nnnn2-c2ccc3c(c2)OCCO3)CC1 (configuration not stated),7.28 µM
11,Nc1ccc(-c2cc3ccccc3oc2=O)cc1,> 35.9 µM (inactive)
12,CCOc1ccc(/C=C2\SC(=S)N(CCC(=O)O)C2=O)cc1,> 35.9 µM (inactive)
13,C/C(=N\NC(=S)Nc1cc(S(=O)(=O)N2CCOCC2)ccc1Cl)c1ccccc1F,inactive
14,CCOC(=O)C(=CNc1ccc(NC2=NCC(C)S2)cc1)C(=O)OCC (configuration not stated),inactive
15,CCOc1cc(/C=C2\CCC/C(=C\c3cc(Cl)c(O)c(OCC)c3)C2=O)cc(Cl)c1O,4.82 µM
16,Cc1cc(-c2nnc(SCC(=O)Nc3ccccc3C(F)(F)F)o2)c(C)n1-c1ccccc1,> 35.9 µM (inactive)
17,COc1ccc(-c2nsc3c(N4CCCCC4)ncnc23)cc1,inactive
18,Cc1cccc(C)c1NS(=O)(=O)c1ccc(-c2cnc(C3CC3)o2)cc1,> 12 µM (inactive)
19,CNc1ncnc(Sc2nc(N)nc3nc[nH]c23)c1[N+](=O)[O-],4.85 µM
